Experimental data: PubChem BioAssay (NCI)
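Grown in 96-well plates, cells were treated for 48 hours with each compound at five concentrations. Insufficient inhibition: endpoint recorded as highest concentration tested. Definition used: TGI = concentration required for complete inhibition of growth.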

What was measured:
Assay in all cases: DTP human tumour cell line panel, 48 h
HCT-116 colon = tested on: HCT-116 colon
T-47D breast = tested on: T-47D breast
IGROV1 ovarian = tested on: IGROV1 ovarian
MOLT-4 leukemia = tested on: MOLT-4 leukemia
HT29 colon = tested on: HT29 colon
MDA-MB-231 breast = tested on: MDA-MB-231 breast
SK-MEL-2 melanoma = tested on: SK-MEL-2 melanoma
EKVX NSCLC = tested on: EKVX NSCLC
NCI/ADR-RES ovarian = tested on: NCI/ADR-RES ovarian
MDA-MB-435 = tested on: MDA-MB-435
SN12C renal = tested on: SN12C renal
SK-OV-3 ovarian = tested on: SK-OV-3 ovarian
SNB-75 CNS = tested on: SNB-75 CNS
SR leukemia = tested on: SR leukemia
786-0 renal = tested on: 786-0 renal
SK-MEL-28 melanoma = tested on: SK-MEL-28 melanoma
MCF7 breast = tested on: MCF7 breast
TK-10 renal = tested on: TK-10 renal
OVCAR-4 ovarian = tested on: OVCAR-4 ovarian

| Structure (SMILES) | TGI (HCT-116 colon) | TGI (T-47D breast) | TGI (IGROV1 ovarian) | TGI (MOLT-4 leukemia) | TGI (HT29 colon) | TGI (MDA-MB-231 breast) | TGI (SK-MEL-2 melanoma) | TGI (EKVX NSCLC) | TGI (NCI/ADR-RES ovarian) | TGI (MDA-MB-435) | TGI (SN12C renal) | TGI (SK-OV-3 ovarian) | TGI (SNB-75 CNS) | TGI (SR leukemia) | TGI (786-0 renal) | TGI (SK-MEL-28 melanoma) | TGI (MCF7 breast) | TGI (TK-10 renal) | TGI (OVCAR-4 ovarian) |
| --- | --- | --- | --- | --- | --- | --- | --- | --- | --- | --- | --- | --- | --- | --- | --- | --- | --- | --- | --- |
| COc1ccc2oc(=O)c3c(c2c1C)OC(C)(C)C=C3 | > 100 µM | > 100 µM | > 100 µM | > 100 µM | > 100 µM | > 100 µM | > 100 µM | > 100 µM | > 100 µM | > 100 µM | > 100 µM | > 100 µM | > 100 µM | > 100 µM | > 100 µM | > 100 µM | > 100 µM | > 100 µM |  |
| Nc1nc(Cl)cc(NCC2(CO)CCC(O)C2)n1 (centres undefined) | > 100 µM | > 100 µM | > 100 µM | > 100 µM | > 100 µM | > 100 µM | > 100 µM | > 100 µM | > 100 µM | > 100 µM | > 100 µM | > 100 µM | > 100 µM | > 100 µM | > 100 µM | > 100 µM | > 100 µM | > 100 µM | > 100 µM |
| Nc1ccc2cc3[nH]c4cc(N)ccc4c3nc2c1 | 0.456 µM | 4.33 µM |  | 6.76 µM | 1.48 µM | 2.09 µM | 1.47 µM | 1.93 µM | 2.34 µM | 1.23 µM | 1.17 µM | 2.03 µM | 1.33 µM | 0.66 µM | 1.39 µM | 0.317 µM | 1.7 µM | 7.98 µM | 3.02 µM |
| C/C=C/C(C#N)(Cc1ccccc1)OP1(=O)OC(c2ccccc2)C(C)N1C (centres undefined) | > 100 µM | > 100 µM | > 100 µM | 78.4 µM | > 100 µM | > 100 µM | > 100 µM | > 100 µM | > 100 µM | > 100 µM | > 100 µM | > 100 µM | > 100 µM | > 100 µM | > 100 µM | > 100 µM | > 100 µM | > 100 µM |  |
| Cc1c2cccc-2ccc2c1[nH]c1ccc(Br)cc12 | 17.2 µM | 4.01 µM | 15 µM |  | 27.9 µM | 18.8 µM | 17.9 µM | 6.11 µM | 38.4 µM | 16.7 µM | 27.2 µM | 28.7 µM | 7.89 µM | > 100 µM | 27.5 µM | 24 µM | 19.8 µM | 32.2 µM | 6.62 µM |
| Cc1cc(S(=O)(=O)n2ccnc2Oc2ccccc2)c(SSc2cc(Cl)c(C)cc2S(=O)(=O)n2ccnc2Oc2ccccc2)cc1Cl | > 100 µM | > 100 µM | > 100 µM |  | > 100 µM | > 100 µM | > 100 µM | > 100 µM | > 100 µM | > 100 µM | > 100 µM | > 100 µM | > 100 µM | > 100 µM | > 100 µM | > 100 µM | > 100 µM | > 100 µM | > 100 µM |
